Assay results published in patent publication US20080058373A1, “Compositions and Methods for Treating or Preventing Glaucoma or Progression Thereof” (priority 2006, published 2008).
Values joined by “and” are separate entries in the source; they are usually repeats but may differ in a detail not shown here. Equal entries are not always repeated.

Tests used:
[1] = system: rabbit eye (anterior chamber paracentesis); assay: Clinical evaluation by slit lamp (clinical score), rabbit paracentesis model; format: in vivo; design: key to Clinical Score −180 min / Clinical Score −5 min / Clinical Score +115 min: 0=normal; 1=discrete dilatation of iris and conjunctival vessels; 2=moderate dilatation of iris and conjunctival vessels; 3=intense iridal hyperemia with flare in the anterior chamber; 4=intense iridal hyperemia with flare in the anterior chamber and presence of fibrinous exudates; conditions: 0.1% topical
[2] = system: New Zealand White rabbits; assay: Intraocular pressure (IOP) in rabbits, topical dosing four times daily; format: in vivo; conditions: 0.1% (Group A)
Procedure: Seventy-five rabbits underwent two weeks of IOP training to condition them for IOP measurement. IOP was determined for both eyes of each animal using a Medtronic Solan, Model 30 classic pneumatonometer. Proparacaine hydrochloride 0.5% (1 drop) was delivered to each eye prior to IOP measurement. A two-point diurnal curve was established: IOP was recorded on Monday, Wednesday, and Friday of each week, at 8 a.m. and 12 p.m., with a ±1 hour range for each of these times. The time of the measurements was recorded.
On Days 1-31, animals received daily topical doses of the appropriate test article into the right eye. Animals were dosed four times per day, with doses administered 2 hours apart. Doses were administered using a calibrated 50-μL pipette. The eyelids were held close for 10 seconds immediately following dosing. The time of each dose administration was recorded.
Intraocular pressure (“IOP”) was determined for both eyes of each animal on Days 3, 5, 10, 12, 16, 18, 22, 24, 26, 30, and 32. IOP was evaluated with a Medtronic Solan, Model 30 classic pneumatonometer. Proparacaine hydrochloride 0.5% (1 drop) was delivered to each eye prior to IOP measurement. IOP was measured on Monday, Wednesday, and Friday of each week. A two-point diurnal curve was established: IOP was recorded at 8 a.m. and 12 p.m. on Day 3, and at 8 a.m. and 2 p.m. on later days, with a ±1 hour range for each of these times. The time of the measurements was recorded.
Descriptive statistics were prepared for IOP data of each treatment group (left and right eyes separately) at each measurement interval. The statistics included the number of observations (“N”), mean, standard deviation (“STD”), and standard error (“SEM”). Statistical analyses were conducted on IOP results using Statistical Analysis Systems (SAS Institute, Inc., Cary, N.C., V8.0). Parameters were evaluated using analysis of variance/GLM Procedure followed by Tukey's Standardized Range Test (Tukey, 1985) for post hoc comparisons of group means. The level of significance was set at a probability of p<0.05 for all statistical procedures. Group IOP means were compared at each interval, with left and right eyes compared separately.

[3] = system: primary human corneal epithelial cells; assay: IL-1β-stimulated cytokine production in primary HCECs (30-cytokine Luminex kit); conditions: 18 h, P<0.05
Procedure: Primary HCECs were seeded in 24-well plates. […] Each treatment was performed in triplicate. Media were collected and used for determination of cytokine content using a 30-cytokine Luminex kit. Cell viability was determined by alamarBlue assay (LP06013).
Median fluorescence intensity (MFI) was used to obtain the concentration of each cytokines in pg/ml based on the standard curve of each cytokine assayed by Luminex. The linear range of the standard curve for each cytokine was used for determination of cytokine concentration. Duplicate values for each sample were averaged. Data were expressed as mean±SD. Statistical analysis was performed using one-way ANOVA-Dunnett's test, and P<0.05 was considered statistically significant.

[4] = 10 ng/ml IL-1β-stimulated HCECs

C[C@@H]1C[C@H]2[C@@H]3CCC4=CC(=O)C=C[C@]4(C)[C@@]3(F)[C@@H](O)C[C@]2(C)[C@@]1(O)C(=O)CO [dexamethasone, reference compound]
Clinical Score −5 min ([1]; 5 min before the first paracentesis, single eyes, listed as Dex): 0 and 1 | Clinical Score +115 min ([1]; 5 min before the second paracentesis, single eyes, listed as Dex): 1 and 3 | Percentage of eyes with clinical score 1 ([1]; +115 min, N=8 eyes): 75% | Percentage of eyes with clinical score 3 ([1]; +115 min, N=8 eyes): 25% | Percentage of eyes with clinical score 0 ([1]; −5 min, N=8 eyes): 75% | Percentage of eyes with clinical score 1 ([1]; −5 min, N=8 eyes): 25% | Percentage of eyes with clinical score 0 ([1]; −180 min (basal), N=8 eyes): 100% | Clinical Score −180 min ([1]; −180 min (basal), single eyes): 0 | Intraocular Pressure in Untreated Left Eyes (A.M. Readings), MEAN ([2]; Day 3): 24.3 mmHg | Intraocular Pressure in Untreated Left Eyes (A.M. Readings), MEAN ([2]; Day 5): 24.3 mmHg | Intraocular Pressure in Untreated Left Eyes (A.M. Readings), MEAN ([2]; Day 10): 26.9 mmHg | Intraocular Pressure in Untreated Left Eyes (A.M. Readings), MEAN ([2]; Day 12): 26.2 mmHg | Intraocular Pressure in Untreated Left Eyes (A.M. Readings), MEAN ([2]; Day 16): 25.0 mmHg | Intraocular Pressure in Untreated Left Eyes (A.M. Readings), MEAN ([2]; Day 18): 24.2 mmHg | Intraocular Pressure in Untreated Left Eyes (A.M. Readings), MEAN ([2]; Day 22): 25.0 mmHg | Intraocular Pressure in Untreated Left Eyes (A.M. Readings), MEAN ([2]; Day 24): 23.6 mmHg | Intraocular Pressure in Untreated Left Eyes (A.M. Readings), MEAN ([2]; Day 26): 23.7 mmHg | Intraocular Pressure in Untreated Left Eyes (A.M. Readings), MEAN ([2]; Day 30): 24.0 mmHg | Intraocular Pressure in Untreated Left Eyes (A.M. Readings), MEAN ([2]; Day 32): 25.5 mmHg | Intraocular Pressure in Untreated Left Eyes (A.M. Readings), MEAN ([2]; Pre-Study): 24.4 mmHg | Concentration at which a significant inhibitory effect was observed on IL-6 [3, 4]: 1 nM | Concentration at which a significant inhibitory effect was observed on MCP-1 [3, 4]: 10 nM | Concentration at which a significant inhibitory effect was observed on TGF-α [3, 4]: 10 nM | Concentration at which a significant inhibitory effect was observed on TNF-α [3, 4]: 10 nM | Concentration at which a significant inhibitory effect was observed on RANTES ([3]; IL-1β-stimulated HCECs): 1 µM
